# Test results published in patent publication US8222293B2, “Treating learning deficits with inhibitors of Hmg CoA reductase” (Regents of the University of Carolina, priority 2004, dated 2012).
# Columns and labels:
# [1] = system: phosphorylated p44/42 MAPK; assay: Western blot for p44/42 MAP kinase phosphorylation in hippocampal extracts of treated mice
# [2] = system: nf1+/− mice; assay: Prepulse inhibition; format: in vivo, mouse
# Description: Following an acclimation period of 5 min, mice were presented with a total of 20 noise bursts (40 ms duration, 120 dB, <1 ms rise/fall time). In the prepulse inhibition phase, mice were presented with a total of 90 trials. Three prepulse intensities were tested: 70, 75 and 80 dB. Prepulses were 20 ms in duration with a rise/fall time of less than 1 ms. For each prepulse intensity, there were three types of trial: prepulse alone, prepulse/startle stimulus and startle stimulus alone. In the prepulse/startle stimulus trial, the onset of the prepulse preceded the onset of the startle stimulus by 100 ms. Background noise levels were maintained at 68 dB throughout testing, and the trials were spaced […].
# This task assays sensory “gating” of environmental stimuli. A powerful and sudden acoustic stimulus will elicit a whole body startle response. When the startle producing stimulus is preceded by a weak pre-stimulus (by approximately 100 milliseconds) the startle response is inhibited in normal persons and animals. Previous studies show a high incidence of ADHD in NF1 and support an association between ADHD and learning problems in these children.
# [3] = system: nf1+/− mice; assay: Water maze test (spatial learning); format: in vivo, mouse
# Text: The basic protocol for the water maze experiments has been previously described. Mice from the 129T2/SvEmsJ-C57B/6N F1 genetic background were given two trials per day (30-s inter-trial intervals) with a probe trial (60 s) at the end of training day 5 and 7.
# Spatial problems are among the most common cognitive deficits in individuals affected with NF1. […] Mice were trained with two trials per day.
# In the probe trials the platform was removed from the pool and the mice were allowed to search for it for 60 seconds.
# [4] = system: hippocampal slices of nf1+/− mice; assay: Hippocampal LTP at the Schaffer collateral/CA1 synapse in slices from treated mice; format: in vivo, mouse; conditions: 10 mg/kg s.c. once per day for 4 days
# [5] = system: nf1+/− mice; assay: Lateralized reaction time task (attention); format: in vivo, mouse; conditions: 10 mg/kg oral pellets daily, target stimulus duration 0.5 sec
# Text: Mice were fed 1.5 gm of chow every day in their home cages (1 hr after experiment). […] Mice were trained in miniaturized versions of a “5-choice” box (Med Associates Inc., St Albans Vt.) that was equipped with a curved wall with horizontal array five apertures that could be internally illuminated. The opposite wall was fitted with a food receptacle where pellets were delivered as reinforcers. The animals were shaped to produce a “poke and hold” response in the central aperture. A correct response was scored when the animals correctly poked a side aperture that had been indicated during the poke and hold response. […] When animals performed at 75% accuracy at 1 second target stimulus duration they entered the test phase. Mice were tested on a variable duration condition in which the target aperture was illuminated for 0.5, 1.0 or 2.0 sec (varied from trial to trial within the session). Correct responses/total trials were measured, which vary as a function of the target stimulus duration and was therefore analyzed with repeated measures analysis of variance (the repeated measure being stimulus duration).
# Besides spatial impairments, NF-1 patients also show attention deficits. […] For this purpose, a lateralized reaction-time task, a test that measures divided visuo-spatial attention, was used. […]
# [6] = system: p21Ras-GTP; assay: p21Ras activity assay (GST-Raf1-RBD pull-down) in hippocampal extracts of treated mice
compound,measurement,setting,value
CC[C@H](C)C(=O)O[C@H]1C[C@@H](C)C=C2C=C[C@H](C)[C@H](CC[C@@H]3C[C@@H](O)CC(=O)O3)[C@H]21 [lovastatin],amount of phosphorylated p44/42 MAPK (the active form) in hippocampus,"[1]; WT mice, 0-50 mg/kg s.c. once per day for 4 days, 6 hours after final injection",decreased the amount of phosphorylated p44/42 MAPK (the active form) in a dose-dependent fashion
same,levels of phosphorylated p44/42 MAPK in hippocampus,"[1]; nf1+/− mice, 10 mg/kg s.c. once per day for 4 days",decreased the levels of phosphorylated p44/42 MAPK
same,"PPI performance, main effect of treatment","[2]; 10 mg/kg oral pellets daily, F1,30=6.61, P<0.05",resulted in an increase in performance
same,"PPI performance, versus WT animals on placebo","[2]; nf1+/− animals on lovastatin, PLSD P=0.877",indistinguishable from that of WT animals on placebo
same,"proximity to exact platform position versus opposite position, probe trial","[3]; WT mice on lovastatin, t19=2.159, P<0.05",searched closer to the exact platform position than to the opposite position in the pool
same,cognitive function in control mice,[3]; dose effective in nf1+/− mice (10 mg/kg),did not affect cognitive function in control mice
same,"proximity to exact platform position versus opposite position, probe trial","[3]; nf1+/− mice on lovastatin, t20=2.170, P<0.05",searched closer to the exact platform position than to the opposite position in the pool
same,"time spent in training quadrant, day 7 probe trial, versus WT","[3]; nf1+/− mice, 10 mg/kg s.c. 3 days before training then 6 hours before training daily, P=0.862",spent as much time as WTs in the training quadrant
same,"time spent in training quadrant, day 7 probe trial, versus mutants given placebo","[3]; nf1+/− mice, 10 mg/kg s.c., P<0.05",significantly more time than mutants given placebo
same,LTP deficits of nf1+/− mice,[4],completely reversed the LTP deficits
same,"amount of LTP induced, versus WT","[4]; nf1+/− mice, PLSD P=0.602",equivalent to that of WTs
same,"amount of LTP induced, versus untreated nf1+/− mutants","[4]; nf1+/− mice, five theta-burst stimulation, PLSD P<0.05",significantly higher than that induced in mutants
same,"correct response rate, versus nf1+/− given placebo",[5]; PLSD P<0.05,significantly higher
same,"correct response rate, versus WT mice",[5]; PLSD P=0.148,indistinguishable from that of WT mice
same,hippocampal levels of p21Ras-GTP,[6]; WT as printed in b156 (FIG. 1c),decreased the hippocampal levels of p21Ras-GTP in WT
same,active p21Ras (p21Ras-GTP),"[6]; nf1+/− mice, FIG. 1c legend",decreased active p21Ras (p21Ras-GTP)
